Measurements: patent publication US20230357239A1, “PYRIDO[2,3-D]PYRIMIDIN-4-AMINES AS SOS1 INHIBITORS” (Bayer Aktiengesellschaft, priority 2020, published 2023)

Each compound was assayed against human SOS1 (SOS1) with human K-RasG12C (Homo sapiens (Human), UniProt Q07889) (assay: hK-RasG12C interaction assay with hSOS1 (HTRF)). Settings: GST-hK-RasG12C and His-hSOS1, 60 min incubation at 20° C, mean, read-out: K-RasG12C - SOS interaction assay IC50 - [mol/l] (mean).
Format: binding
Description: Biochemical Assay: hK-RasG12C Interaction Assay with hSOS1
This assay quantifies the equilibrium interaction of human SOS1 (SOS1) with human K-Ras^G12C (K-RasG12C). Detection of the interaction is achieved by measuring homogenous time-resolved fluorescence resonance energy transfer (HTRF) from antiGST-Europium (FRET donor) bound to GST-K-RasG12C to anti-6His-XL665 bound to His-tagged hSOS1 (FRET-acceptor).
The assay buffer containes 5 mM HEPES pH 7.4 (Applichem), 150 mM NaCl (Sigma), 10 mM EDTA (Promega), 1 mM DTT (Thermofisher), 0.05% BSA Fraction V, pH 7.0, (ICN Biomedicals), 0.0025% (v/v) Igepal (Sigma) and 100 mM KF (FLUKA).
Concentrations of protein batches used are optimized to be within the linear range of the HTRF signal. A Ras working solution is prepared in assay buffer containing typically 10 nM GST-hK-RasG12C and 2 nM antiGST-Eu(K) (Cisbio, France). A SOS1 working solution is prepared in assay buffer containing typically 20 nM His-hSOS1 and 10 nM anti-6His-XL665 (Cisbio, France). An inhibitor control solution is prepared in assay buffer containing 10 nM anti-6His-XL665 without SOS1.
Fifty nl of a 100-fold concentrated solution of the test compound in DMSO are transferred into a black microtiter test plate (384 or 1536, Greiner Bio-One, Germany).
For this, either a Hummingbird liquid handler (Digilab, MA, USA) or an Echo acoustic system (Labcyte, CA, USA) is used.
All steps of the assay are performed at 20° C. A volume of 2.5 μl of the Ras working solution is added to all wells of the test plate using a Multidrop dispenser (Thermo Labsystems). After 2 min preincubation, 2.5 μl of the SOS1 working solution are added to all wells except for those wells at the side of the test plate that are subsequently filled with 2.5 μl of the inhibitor control solution. After 60 min incubation the fluorescence is measured with a Pherastar (BMG, Germany) using the HTRF module (excitation 337 nm, emission 1: 620 nm, emission 2: 665 nm).
The ratiometric data (emission 2 divided by emission 1) are normalized using the controls (DMSO=0% inhibition, inhibition control wells with inhibitor control solution=100% inhibition). […] IC50 values are calculated by 4-Parameter fitting using a commercial software package (Genedata Screener, Switzerland).

Sequence of human SOS1 (SOS1) with human K-RasG12C (Q07889 564-1049): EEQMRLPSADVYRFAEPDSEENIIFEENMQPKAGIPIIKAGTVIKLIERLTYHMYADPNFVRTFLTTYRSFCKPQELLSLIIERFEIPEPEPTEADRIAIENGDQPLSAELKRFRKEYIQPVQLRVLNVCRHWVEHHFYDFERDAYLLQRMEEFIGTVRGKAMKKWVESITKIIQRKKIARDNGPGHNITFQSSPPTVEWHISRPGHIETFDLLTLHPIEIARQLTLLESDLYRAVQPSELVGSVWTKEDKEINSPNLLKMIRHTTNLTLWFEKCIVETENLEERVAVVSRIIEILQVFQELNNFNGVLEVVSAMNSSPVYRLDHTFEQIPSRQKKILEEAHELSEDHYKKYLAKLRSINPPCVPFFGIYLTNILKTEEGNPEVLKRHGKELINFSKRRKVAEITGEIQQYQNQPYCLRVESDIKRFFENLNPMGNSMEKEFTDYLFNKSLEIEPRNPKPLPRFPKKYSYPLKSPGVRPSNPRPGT

| IC50 [nM] | Compound |
| --- | --- |
| 2.93 | CC(=O)N1C[C@@H]2C[C@H]1CN2c1cnc2nc(C)nc(N[C@H](C)c3cccc(C(F)(F)C(C)(C)O)c3F)c2c1 [Example 50, 1-{(1 S,4S)-5-[4-({(1R)-1-[3-(1,1-difluoro-2-hydroxy-2-methylpropyl)-2-fluorophenyl]ethyl}amino)-2-methylpyrido[2,3-d]pyrimidin-6-yl]-2,5-diazabicyclo[2.2.1]heptan-2-yl}ethan-1-one] |
| 3.18 | CC(=O)N1CCC(c2cc3c(N[C@H](C)c4cccc(C(F)(F)C(C)(C)O)c4F)nc(C)nc3nc2C)CC1 [Example 66, 1-{4-[4-({(1R)-1-[3-(1,1-difluoro-2-hydroxy-2-methylpropyl)-2-fluorophenyl]ethyl}amino)-2,7-dimethylpyrido[2,3-d]pyrimidin-6-yl]piperidin-1-yl}ethan-1-one] |
| 9.81 | CC(=O)N1CCC(c2cc3c(N[C@H](C)c4cccc(C(F)F)c4F)nc(C)nc3nc2C)CC1 [Example 57, 1-{4-[4-({(1R)-1-[3-(difluoromethyl)-2-fluorophenyl]ethyl}amino)-2,7-dimethylpyrido[2,3-d]pyrimidin-6-yl]piperidin-1-yl}ethan-1-one] |
| 5.78 | CC(=O)N1CC2(C1)CN(c1cc3c(N[C@H](C)c4cccc(C(F)(F)F)c4C)nc(C)nc3nc1C(F)(F)F)C2 [Example 71, 1-{6-[2-methyl-4-({(1R)-1-[2-methyl-3-(trifluoromethyl)phenyl]ethyl}amino)-7-(trifluoromethyl)pyrido[2,3-d]pyrimidin-6-yl]-2,6-diazaspiro[3.3]heptan-2-yl}ethan-1-one] |
| 16.1 | CC(=O)N1CC(c2cnc3nc(C)nc(N[C@H](C)c4cccc(C(F)(F)F)c4C)c3c2)C1 [Example 40, 1-{3-[2-methyl-4-({(1R)-1-[2-methyl-3-(trifluoromethyl)phenyl]ethyl}amino)pyrido[2,3-d]pyrimidin-6-yl]azetidin-1-yl}ethan-1-one] |
| 4.48 | Cc1nc(N[C@H](C)c2cccc(C(F)(F)C(C)(C)O)c2F)c2cc(N3CCN(C)CC3)cnc2n1 [Example 52, 1,1-difluoro-1-{2-fluoro-3-[(1R)-1-{[2-methyl-6-(4-methylpiperazin-1-yl)pyrido[2,3-d]pyrimidin-4-yl]amino}ethyl]phenyl}-2-methylpropan-2-ol] |
| 6.23 | CC(=O)N1CCN(c2cc3c(N[C@H](C)c4cccc(C(F)(F)C(C)(C)O)c4F)nc(C)nc3nc2C)CC1 [Example 67, 1-{4-[4-({(1R)-1-[3-(1,1-difluoro-2-hydroxy-2-methylpropyl)-2-fluorophenyl]ethyl}amino)-2,7-dimethylpyrido[2,3-d]pyrimidin-6-yl]piperazin-1-yl}ethan-1-one] |
| 23 | CC(=O)N1CC=C(c2cc3c(N[C@H](C)c4cccc(C(F)(F)F)c4C)nc(C)nc3nc2C(F)(F)F)CC1 [Example 41, 1-{4-[2-methyl-4-({(1R)-1-[2-methyl-3-(trifluoromethyl)phenyl]ethyl}amino)-7-(trifluoromethyl)pyrido[2,3-d]pyrimidin-6-yl]-3,6-dihydropyridin-1(2H)-yl}ethan-1-one] |
| 4 | CC(=O)N1CCC(c2cnc3nc(C)nc(N[C@H](C)c4cccc(C(F)(F)C(C)(C)O)c4F)c3c2)CC1 [Example 47, 1-{4-[4-({(1R)-1-[3-(1,1-difluoro-2-hydroxy-2-methylpropyl)-2-fluorophenyl]ethyl}amino)-2-methylpyrido[2,3-d]pyrimidin-6-yl]piperidin-1-yl}ethan-1-one] |
| 8.43 | CC(=O)N1CCC(c2cnc3nc(C)nc(N[C@H](C)c4cccc(C(F)F)c4F)c3c2)CC1 [Example 44, 1-{4-[4-({(1R)-1-[3-(difluoromethyl)-2-fluorophenyl]ethyl}amino)-2-methylpyrido[2,3-d]pyrimidin-6-yl]piperidin-1-yl}ethan-1-one] |

The next lines start with the compound.

| Compound | IC50 [nM] |
| --- | --- |
| CC(=O)N1CCN(c2cc3c(N[C@H](C)c4cccc(C(F)(F)F)c4C)nc(C)nc3nc2C)CC1 [Example 19, 1-{4-[2,7-dimethyl-4-({(1R)-1-[2-methyl-3-(trifluoromethyl)phenyl]ethyl}amino)pyrido[2,3-d]pyrimidin-6-yl]piperazin-1-yl}ethan-1-one] | 8.25 |
| Cc1nc(N[C@H](C)c2cccc(C(F)(F)F)c2C)c2cc(N3CC4(CN(C(=O)OC(C)(C)C)C4)C3)cnc2n1 [Example 7, tert-butyl 6-[2-methyl-4-({(1R)-1-[2-methyl-3-(trifluoromethyl)phenyl]ethyl}amino)pyrido[2,3-d]pyrimidin-6-yl]-2,6-diazaspiro[3.3]heptane-2-carboxylate] | 180 |
| CC(=O)N1CC=C(c2cnc3ncnc(N[C@H](C)c4cccc(C(F)(F)F)c4C)c3c2)CC1 [Example 12, 1-{4-[4-({(1R)-1-[2-methyl-3-(trifluoromethyl)phenyl]ethyl}amino)pyrido[2,3-d]pyrimidin-6-yl]-3,6-dihydropyridin-1(2H)-yl}ethan-1-one] | 4.06 |
| CC(=O)N1CC=C(c2cnc3nc(C)nc(N[C@H](C)c4cccc(C(F)(F)F)c4C)c3c2)C1 [Example 30, 1-{3-[2-methyl-4-({(1R)-1-[2-methyl-3-(trifluoromethyl)phenyl]ethyl}amino)pyrido[2,3-d]pyrimidin-6-yl]-2,5-dihydro-1H-pyrrol-1-yl}ethan-1-one] | 38 |
| CC(=O)N1CC2(CC=C(c3cnc4nc(C)nc(N[C@H](C)c5cccc(C(F)(F)F)c5C)c4c3)CC2)C1 [Example 27, 1-{7-[2-methyl-4-({(1R)-1-[2-methyl-3-(trifluoromethyl)phenyl]ethyl}amino)pyrido[2,3-d]pyrimidin-6-yl]-2-azaspiro[3.5]non-6-en-2-yl}ethan-1-one] | 7.96 |
| CC(=O)N[C@@H]1CCN(c2cnc3ncnc(N[C@H](C)c4cccc(C(F)(F)F)c4C)c3c2)C1 [Example 11, N-{(3R)-1-[4-({(1R)-1-[2-methyl-3-(trifluoromethyl)phenyl]ethyl}amino)pyrido[2,3-d]pyrimidin-6-yl]pyrrolidin-3-yl}acetamide] | 17.6 |
| Cc1nc(N[C@H](C)c2cccc(C(F)(F)F)c2C)c2cc(N3CCN(C)CC3)cnc2n1 [Example 15, 2-methyl-6-(4-methylpiperazin-1-yl)—N-{(1R)-1-[2-methyl-3-(trifluoromethyl)phenyl]ethyl}pyrido[2,3-d]pyrimidin-4-amine] | 10.6 |
| CC(=O)N1CCC(c2cnc3ncnc(N[C@H](C)c4cccc(C(F)(F)F)c4)c3c2)CC1 [Example 9, 1-{4-[4-({(1R)-1-[3-(trifluoromethyl)phenyl]ethyl}amino)pyrido[2,3-d]pyrimidin-6-yl]piperidin-1-yl}ethan-1-one] | 64.3 |
| CC(=O)N[C@@H]1CCN(c2cnc3nc(C)nc(N[C@H](C)c4cccc(C(F)(F)F)c4C)c3c2)C1 [Example 16, N-{(3R)-1-[2-methyl-4-({(1R)-1-[2-methyl-3-(trifluoromethyl)phenyl]ethyl}amino)pyrido[2,3-d]pyrimidin-6-yl]pyrrolidin-3-yl}acetamide] | 17.5 |
| CC(=O)N1CCN(c2cnc3ncnc(N[C@H](C)c4cccc(C(F)(F)F)c4)c3c2)CC1 [Example 4, 1-{4-[4-({(1R)-1-[3-(trifluoromethyl)phenyl]ethyl}amino)pyrido[2,3-d]pyrimidin-6-yl]piperazin-1-yl}ethan-1-one] | 16.3 |
| CC(=O)N1CC[N+]([O-])(c2cnc3nc(C)nc(N[C@H](C)c4cccc(C(F)(F)F)c4C)c3c2)CC1 [Example 36, 1-{4-[2-methyl-4-({(1R)-1-[2-methyl-3-(trifluoromethyl)phenyl]ethyl}amino)pyrido[2,3-d]pyrimidin-6-yl]-4-oxo-4lambda^5-piperazin-1-yl}ethan-1-one] | 6.46 |
| Cc1nc(N[C@H](C)c2cccc(C(F)(F)F)c2C)c2cc(Br)cnc2n1 [Example 6, 6-bromo-2-methyl-N-{(1R)-1-[2-methyl-3-(trifluoromethyl)phenyl]ethyl}pyrido[2,3-d]pyrimidin-4-amine] | 251 |
| Cc1nc(N[C@H](C)c2cccc(C(F)(F)F)c2C)c2cc(N(C)S(C)(=O)=O)cnc2n1 [Example 33, N-methyl-N-[2-methyl-4-({(1R)-1-[2-methyl-3-(trifluoromethyl)phenyl]ethyl}amino)pyrido[2,3-d]pyrimidin-6-yl]methanesulfonamide] | 27.9 |
| CC(=O)N1CCN(c2cnc3ncnc(N[C@H](C)c4cccc(C(F)(F)F)c4C)c3c2)CC1 [Example 10, 1-{4-[4-({(1R)-1-[2-methyl-3-(trifluoromethyl)phenyl]ethyl}amino)pyrido[2,3-d]pyrimidin-6-yl]piperazin-1-yl}ethan-1-one] | 3.55 |
